Test results: patent US11117888B2, “Irreversible inhibitors of pyruvate kinase M2 and the use thereof” (China Medical University, priority 2020, dated 2021)

How the values were obtained:
[1] = Incubation with free cysteine, mass spectral analysis; type: physicochemical; conditions: stoichiometric amount of free cysteine in solution
Source text: In an effort to develop irreversible kinase inhibitors, we chose the core structures of several published kinase inhibitors to couple with a propiolyl moiety, which could act as an electrophilic warhead to irreversibly modify the cysteine residues of target proteins.

[2] = tested on: MDA-MB-231 breast cancer cells; experiment: MTT cell viability assay, MDA-MB-231; type: cell-based; conditions: Homo sapiens; MDA-MB-231, MTT, 24 hours
Source text: (§1) Cell lines, cell culture, biochemical reagents, and antibodies. MiaPaCa-2, AsPC-1, and Panc-1 human pancreatic cancer cells, MCF-7 and MDA-MB-231 breast cancer cells, SCC4 and SCC2059 oral cancer cells, PC-3 and LNCaP prostate cancer cells, H157, H460, H1975, PC-9 and H1650 lung cancer cells were obtained from the American Type Culture Collection (ATCC, Manassas, Va.). All these cells were maintained in recommended growth medium (RPMI 1640 or DMEM) supplemented with 10% fetal bovine serum (FBS) (Invitrogen, Carlsbad, Calif., USA) and antibiotics at 37° C. in a humidified incubator containing 5% CO2. For SILAC experiments, PC-9 cells were grown in SILAC DMEM medium (Thermo Fisher) supplemented with 10% dialyzed FBS and 100 μg/mL each of unlabeled L-arginine and L-lysine (light medium) or ^13C/^15N stable isotope-labeled L-arginine and L-lysine (heavy medium). […]
(§2) Cell viability assays. Drug effects on cell viability was assessed by 3-(4,5-dimethylthiazol-2-yl)-2,5-diphenyltetrazolium bromide ([…]) assays. […] The medium was then removed from each well and replaced with DMSO to dissolve the reduced MTT dye for subsequent colorimetric measurement of absorbance at 560 nm. Cell viabilities are expressed as percentages of viable cells relative to the corresponding vehicle-treated control group.

H157 lung cancer cells = experiment: MTT cell viability assay, H157; type: cell-based; conditions: Homo sapiens, NCI-H157, H157 (wild type EGFR), 24 hours
Source text: as §1, §2

IC50 [2]: 0.1 µM
IC50 (H157 lung cancer cells): > 2 µM
Structure (SMILES): C#CC(=O)Nc1ccc(-n2nc(CCC(=O)NC)cc2-c2ccc(-c3ccc(C(F)(F)F)cc3)cc2)cc1 [compound 1, N-(4-(3-(3-(Methylamino)-3-oxopropyl)-5-(4′-(trifluoromethyl)-[1,1′-biphenyl]-4-yl)-1H-pyrazol-1-yl)phenyl)propiolamide]
adduct formation with free cysteine [1]: formation of a covalent 1-cysteine adduct
